This is an account of results in patent US20110130425A1, “Use of H3 Histaminergic Agonists for the Treatment of Addiction to Drugs of Abuse” (priority 2009, published 2011).

The test system of this experiment is alcohol-seeking responses (craving). Kind of experiment: Cue-induced reinstatement of ethanol-seeking behavior. The class given is in vivo, rat. The note with it: L-histidine acute injection; rats. The method, then: The goal of this study is to evaluate the effects of a H3 histaminergic ligand, such as L-histidine, in a gold-standard model in the alcohol field. Namely, cue-induced reinstatement of alcohol-seeking behavior in order to measure alcohol-seeking responses (craving).
Priming and cue-induced reinstatement of ethanol-seeking behavior: Rats are trained to self-administer 10% (v/v) ethanol in a single 30 minute daily session on a Fixed Ratio 1 (FR 1) schedule. During the first three days of training, responses at the left lever are reinforced by delivery of 0.2% (w/v) saccharin solution. Following acquisition of saccharin-reinforced responding, rats are trained to self-administer ethanol. Thus, rats have access to 0.2% saccharin with 5% ethanol for one day, 5% ethanol for 1 day, 0.2% saccharin with 8% ethanol for 1 day, 8% ethanol for 1 day, 0.2% saccharin with 10% ethanol for 1 day, and 10% ethanol for 1 day. During all the training phase, responses at the right lever result in the delivery of a drop of water.
During the conditioning phase, animals are trained to discriminate the availability of ethanol (reward) vs. water (non-reward). This phase starts after completion of the saccharin-fading procedure. […] The 5 second period serves as “time-out” during which responses are recorded but not reinforced. […]

On to `N[C@@H](Cc1c[nH]cn1)C(=O)O` [L-histidine], for which the “alcohol seeking (craving) induced by cues” value is given as “decreases alcohol seeking”.
